Assays:
whole human blood = assay: In vitro production of Aα 17-21 epitope containing peptide in human blood, other membrane perturbators with cytochalasin B; assay type: cell-based; conditions: 5 mg/ml cytochalasin B
Procedure: Other known membrane perturbators have been used to evaluate the in vitro production of the epitope containing cleavage peptide Aα 17-21 in human blood. Aliquots of freshly-drawn heparinized whole blood were incubated for 25 minutes at 37°C in the presence of either 5 mg/ml cytochalasin B and concentrations of phorbol-12-myristate-13-acetate (PMA) ranging up to 20 mM or in the presence of the combination of 5 mg/ml cytochalasin B and concentrations of n-formyl-L-norleucyl-L-leucyl-L-phenylalanine (FNLP) ranging up to 20 mM. Plasma was collected, prepared and assayed as described above.

human leukocyte elastase = target: T1, human leukocyte elastase (Homo sapiens, UniProt P08246); assay: Elastase inhibitor activity assay: A23187-stimulated fibrinogen cleavage peptide production in whole human blood; assay type: cell-based; conditions: A23187 150 mM
T1 construct: exposure of whole human blood to calcium ionophore A23187 results in elastase cleavage product by allowing the release of neutrophil elastase; endogenous in cells; host or cells: leukocytes (neutrophils) in freshly drawn heparinized whole human blood, stimulated with A23187
T1 sequence (P08246 30-267): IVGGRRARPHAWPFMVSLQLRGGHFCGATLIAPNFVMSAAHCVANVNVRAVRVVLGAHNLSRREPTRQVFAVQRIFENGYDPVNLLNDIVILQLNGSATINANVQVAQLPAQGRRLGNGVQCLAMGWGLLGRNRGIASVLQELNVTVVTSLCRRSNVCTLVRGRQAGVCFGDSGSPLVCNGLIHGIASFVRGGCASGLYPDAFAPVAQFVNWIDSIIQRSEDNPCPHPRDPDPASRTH
Procedure: The above defined assay technology is used to monitor the activity of human elastase inhibitors on human leukocyte elastase activity in human and primate blood. […] Replicate aliquots of freshly-drawn heparinized whole human blood are prepared with concentrations of elastase inhibitor ranging up to about 300 mg/ml. Following a brief pre-incubation with the inhibitor, a membrane perturbator, such as calcium ionophore A23187, is added at a concentration of between about 75 mM and about 300 mM. Non-membrane perturbator controls containing blood and perturbator-only controls are included to measure the extent of uninhibited peptide generation. All assay samples are incubated at about 37°C for about 25 minutes. The plasma is then prepared and assayed for fibrinogen cleavage products as described above.
The effect of the elastase inhibitor 3-Acetoxymethyl-1a-methoxy-6-oxo-5-thia-1-azabicyclo[4.2.0]oct-2-ene-2-(2-(S)-carboxypyrrolidinecarboxamide)5,5-dioxide (compound 1) on the calcium ionophore A23187-induced fibrinogen cleavage peptide production was evaluated. Replicate 2 ml aliquots of freshly-drawn heparinized whole human blood were prepared with concentrations of compound 1 ranging up to […]. Following a brief pre-incubation of 5 minutes at 37°C, calcium ionophore A23187 was added to a final concentration of 150 mM. Non-ionophore containing blood and ionophore-only (no inhibitor) controls were included to measure the extent of uninhibited peptide generation. All aliquots were incubated at 37°C for 25 minutes, the plasma collected, processed and assayed for fibrinogen cleavage peptide as described above.

leukocyte elastase = assay: Ionophore-induced peptide production in blood drawn from an elastase inhibitor-treated chimpanzee; assay type: in vivo
Procedure: In vivo inhibition of fibrinogen cleavage products following treatment of primates with an elastase inhibitor is evaluated. Blood or fluid samples are collected both before and after treatment with either an elastase inhibitor or saline. Each heparinized blood sample is divided into about 4 aliquots (about 1 ml) and processed as described above. Treatment of an animal with an elastase inhibitor causes a marked reduction in the amount of elastase cleavage product produced.
Two chimpanzees were anesthetized and fitted with venous catheters for the collection of blood. Blood was collected from each animal at intervals over a 60 minute period prior to the administration of the elastase inhibitor. All blood samples were collected in heparin. After the initial 60 minute period one animal was given an intravenous injection of 10 mg/kg of the elastase inhibitor compound 1 while the other animal received an equivalent volume of normal saline. Additional heparinized blood samples were taken from both animals at regular intervals over the next 60 minutes. Each freshly-drawn sample of whole heparinized chimpanzee blood was divided into 4 aliquots. Calcium ionophore A23187 was added at a final concentration of 150 mM to two of the aliquots and an equivalent volume of the DMSO vehicle was added to the other two. All blood samples were incubated at 37° for 25 minutes, plasma collected and assayed as described above.
Elastase inhibitor was infused into the treated animal at time 0.

CCCCCCCCCCCCCC(=O)O[C@@H]1[C@@H](C)[C@@]2(O)[C@@H](C=C(CO)C[C@]3(O)C(=O)C(C)=C[C@@H]23)[C@@H]2C(C)(C)[C@]12OC(C)=O [PMA, phorbol-12-myristate-13-acetate]
Aα 17-21 Epitope Containing Peptide Produced (picomoles/ml plasma) (whole human blood; PMA 0.003 mMolar, 25 minutes at 37°C): 0.0 picomoles/ml plasma
Aα 17-21 Epitope Containing Peptide Produced (picomoles/ml plasma) (whole human blood; PMA 0.010 mMolar): 0.3 picomoles/ml plasma
Aα 17-21 Epitope Containing Peptide Produced (picomoles/ml plasma) (whole human blood; PMA 0.03 mMolar): 0.3 picomoles/ml plasma
Aα 17-21 Epitope Containing Peptide Produced (picomoles/ml plasma) (whole human blood; PMA 0.10 mMolar): 0.4 picomoles/ml plasma
Aα 17-21 Epitope Containing Peptide Produced (picomoles/ml plasma) (whole human blood; PMA 0.30 mMolar): 0.9 picomoles/ml plasma
Aα 17-21 Epitope Containing Peptide Produced (picomoles/ml plasma) (whole human blood; PMA 1.0 mMolar): 1.5 picomoles/ml plasma
Aα 17-21 Epitope Containing Peptide Produced (picomoles/ml plasma) (whole human blood; PMA 3.0 mMolar): 2.6 picomoles/ml plasma
Aα 17-21 Epitope Containing Peptide Produced (picomoles/ml plasma) (whole human blood; PMA 10.0 mMolar): 3.0 picomoles/ml plasma
Aα 17-21 Epitope Containing Peptide Produced (picomoles/ml plasma) (whole human blood; PMA 20.0 mMolar): 3.7 picomoles/ml plasma

COC1C(=O)N2C(C(=O)N3CCCC3C(=O)O)=C(COC(C)=O)CS(=O)(=O)C12 [compound 1, 3-Acetoxymethyl-1a-methoxy-6-oxo-5-thia-1-azabicyclo[4.2.0]oct-2-ene-2-(2-(S)-carboxypyrrolidinecarboxamide)5,5-dioxide]
Cleavage Product Produced picomoles/ml (human leukocyte elastase; Elastase Inhibitor 1 mg/ml): 2.3 picomoles/ml
inhibition at 1000 µg/mL (human leukocyte elastase; Elastase Inhibitor 1 mg/ml, read-out: Percent Inhibition): 4%
Cleavage Product Produced picomoles/ml (human leukocyte elastase; Elastase Inhibitor 5 mg/ml): 1.6 picomoles/ml
Cleavage Product Produced picomoles/ml (human leukocyte elastase; Elastase Inhibitor 10 mg/ml): 1.6 picomoles/ml
Cleavage Product Produced picomoles/ml (human leukocyte elastase; Elastase Inhibitor 20 mg/ml): 1.5 picomoles/ml
Cleavage Product Produced picomoles/ml (human leukocyte elastase; Elastase Inhibitor 30 mg/ml): 1.2 picomoles/ml
Cleavage Product Produced picomoles/ml (human leukocyte elastase; Elastase Inhibitor 40 mg/ml): 0.8 picomoles/ml
Cleavage Product Produced picomoles/ml (human leukocyte elastase; Elastase Inhibitor 80 mg/ml): 0.4 picomoles/ml
A 1-21 Peptide Produced (picomoles/ml plasma) Treated (leukocyte elastase; Time 1.0 min after intravenous injection of 10 mg/kg, blood stimulated with A23187 150 mM): 1.10 picomoles/ml plasma
A 1-21 Peptide Produced (picomoles/ml plasma) Treated (leukocyte elastase; Time 2.5 min after intravenous 10 mg/kg): 1.30 picomoles/ml plasma
A 1-21 Peptide Produced (picomoles/ml plasma) Treated (leukocyte elastase; Time 5.0 min after intravenous 10 mg/kg): 1.60 picomoles/ml plasma
A 1-21 Peptide Produced (picomoles/ml plasma) Treated (leukocyte elastase; Time 7.5 min after intravenous 10 mg/kg): 2.00 picomoles/ml plasma
A 1-21 Peptide Produced (picomoles/ml plasma) Treated (leukocyte elastase; Time 10.0 min after intravenous 10 mg/kg): 1.80 picomoles/ml plasma
A 1-21 Peptide Produced (picomoles/ml plasma) Treated (leukocyte elastase; Time 12.5 min after intravenous 10 mg/kg): 1.70 picomoles/ml plasma
A 1-21 Peptide Produced (picomoles/ml plasma) Treated (leukocyte elastase; Time 15.0 min after intravenous 10 mg/kg): 0.98 picomoles/ml plasma
A 1-21 Peptide Produced (picomoles/ml plasma) Treated (leukocyte elastase; Time 20.0 min after intravenous 10 mg/kg): 1.90 picomoles/ml plasma
A 1-21 Peptide Produced (picomoles/ml plasma) Treated (leukocyte elastase; Time 30.0 min after intravenous 10 mg/kg): 2.20 picomoles/ml plasma
A 1-21 Peptide Produced (picomoles/ml plasma) Treated (leukocyte elastase; Time 40.0 min after intravenous 10 mg/kg): 3.10 picomoles/ml plasma
A 1-21 Peptide Produced (picomoles/ml plasma) Treated (leukocyte elastase; Time 50.0 min after intravenous 10 mg/kg): 2.60 picomoles/ml plasma
A 1-21 Peptide Produced (picomoles/ml plasma) Treated (leukocyte elastase; Time 60.0 min after intravenous 10 mg/kg): 2.50 picomoles/ml plasma
levels of the fibrinogen peptide produced in response to calcium ionophore A23187 after infusion (leukocyte elastase; treated chimpanzee, 10 mg/kg intravenous, in words): markedly lower levels

n-formyl-L-norleucyl-L-leucyl-L-phenylalanine [FNLP]
Aα 17-21 Epitope Containing Peptide Produced (picomoles/ml plasma) (whole human blood; FNLP 0.001 mMolar, 25 minutes at 37°C): 0.0 picomoles/ml plasma
Aα 17-21 Epitope Containing Peptide Produced (picomoles/ml plasma) (whole human blood; FNLP 0.003 mMolar): 0.0 picomoles/ml plasma
Aα 17-21 Epitope Containing Peptide Produced (picomoles/ml plasma) (whole human blood; FNLP 0.010 mMolar): 0.0 picomoles/ml plasma
Aα 17-21 Epitope Containing Peptide Produced (picomoles/ml plasma) (whole human blood; FNLP 0.03 mMolar): 0.4 picomoles/ml plasma
Aα 17-21 Epitope Containing Peptide Produced (picomoles/ml plasma) (whole human blood; FNLP 0.1 mMolar): 0.9 picomoles/ml plasma
Aα 17-21 Epitope Containing Peptide Produced (picomoles/ml plasma) (whole human blood; FNLP 0.3 mMolar): 1.1 picomoles/ml plasma
Aα 17-21 Epitope Containing Peptide Produced (picomoles/ml plasma) (whole human blood; FNLP 1.0 mMolar): 1.1 picomoles/ml plasma
Aα 17-21 Epitope Containing Peptide Produced (picomoles/ml plasma) (whole human blood; FNLP 3.0 mMolar): 1.3 picomoles/ml plasma
Aα 17-21 Epitope Containing Peptide Produced (picomoles/ml plasma) (whole human blood; FNLP 10.0 mMolar): 1.2 picomoles/ml plasma
Aα 17-21 Epitope Containing Peptide Produced (picomoles/ml plasma) (whole human blood; FNLP 20.0 mMolar): 1.3 picomoles/ml plasma

From EP0345906B1, “Unique elastase induced fibrinogen cleavage site antigens” (MERCK & CO. INC., priority 1988, dated 1989)
